The test system of this assay is P388 leukemia ip, CD2F1 mice, survival T/C. The experiment in a line: NCI In Vivo Anticancer Drug Screen. Data for tumor model P388 Leukemia (intraperitoneal) in CD2F1 (CDF1) mice. The settings on record: endpoint: median survival time, higher = longer survival. In short, it runs like this:
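Mice carrying the transplanted tumor received test compound or vehicle. Survival was recorded in each group, and the value is the treated-group measurement divided by that of the vehicle-treated control group.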

[1] abbreviates: dose: 25.0 mg/kg/injection, schedule: Q01DX005 (ip), vehicle: saline with Tween-80.
Setting [2] is: dose: 50.0 mg/kg/injection, schedule: Q01DX005 (ip), vehicle: saline with Tween-80.
Where [3] appears, read: dose: 100.0 mg/kg/injection, schedule: Q01DX005 (ip), vehicle: saline with Tween-80.
The mark [4] stands for this setting: dose: 60.0 mg/kg/injection, schedule: Q01DX005 (ip), vehicle: saline with Tween-80.
The mark [5] stands for this setting: dose: 120.0 mg/kg/injection, schedule: Q01DX005 (ip), vehicle: saline with Tween-80.
Setting [6] is: dose: 60.0 mg/kg/injection, schedule: Q01DX005 (ip), vehicle: Klucel (hydroxypropylcellulose) (HPC).
Where [7] appears, read: dose: 120.0 mg/kg/injection, schedule: Q01DX005 (ip), vehicle: Klucel (hydroxypropylcellulose) (HPC).
Where [8] appears, read: dose: 200.0 mg/kg/injection, schedule: Q01DX005 (ip), vehicle: saline with Tween-80.
Where [9] appears, read: dose: 50.0 mg/kg/injection, schedule: Q01DX005 (ip), vehicle: Klucel (hydroxypropylcellulose) (HPC).
The mark [10] stands for this setting: dose: 100.0 mg/kg/injection, schedule: Q01DX005 (ip), vehicle: Klucel (hydroxypropylcellulose) (HPC).
[11] abbreviates: dose: 200.0 mg/kg/injection, schedule: Q01DX005 (ip), vehicle: Klucel (hydroxypropylcellulose) (HPC).
The mark [12] stands for this setting: dose: 50.0 mg/kg/injection, schedule: Q01DX009 (ip), vehicle: saline with Tween-80.
The mark [13] stands for this setting: dose: 100.0 mg/kg/injection, schedule: Q01DX009 (ip), vehicle: saline with Tween-80.
The mark [14] stands for this setting: dose: 100.0 mg/kg/injection, schedule: Q04DX003 (ip), vehicle: saline with Tween-80.

Structures are written as SMILES. Several values for one entry are separate records, joined by “and”; a condition that tells them apart may be missing. Equal values may be shown once. Inconclusive results and toxic doses are left out.

With `C#CCn1cc(F)c(=O)n(CC#C)c1=O`, the T/C by setting is: (dose: 30.0 mg/kg/injection, schedule: Q04DX002 (ip), vehicle: saline with Tween-80) 101 % of control; (dose: 60.0 mg/kg/injection, schedule: Q04DX002 (ip), vehicle: saline with Tween-80) 99 % of control; (dose: 120.0 mg/kg/injection, schedule: Q04DX002 (ip), vehicle: saline with Tween-80) 98 % of control; (dose: 150.0 mg/kg/injection, schedule: Q04DX002 (ip), vehicle: saline with Tween-80) 107 % of control; (dose: 240.0 mg/kg/injection, schedule: Q04DX002 (ip), vehicle: saline with Tween-80) 100 % of control; (dose: 300.0 mg/kg/injection, schedule: Q04DX002 (ip), vehicle: saline with Tween-80) 104 % of control. For the same molecule, where the note is “dose: 600.0 mg/kg/injection, schedule: Q04DX002 (ip), vehicle: saline with Tween-80”, the T/C was 98 % of control.

As to `O=C(O)C1CSCN1c1cccc[n+]1[O-]` (configuration not stated), the T/C was 101 % of control under setting [1], 102 % of control under setting [2] and 99 % of control under setting [3].

With `Cc1c(C(N)=O)c(NC=O)n(-c2ccccc2)c1C`, the T/C is 100 % of control under setting [4]; 99 % of control under setting [5]; 93 % of control (dose: 240.0 mg/kg/injection, schedule: Q01DX005 (ip), vehicle: saline with Tween-80).

`N#CCCN1C(=O)C2(CCC#N)CCCCC2(O)N=C1c1ccccc1` (configuration not stated): the T/C under setting [6] was 92 % of control; the T/C under setting [7] was 94 % of control; the T/C (dose: 240.0 mg/kg/injection, schedule: Q01DX005 (ip), vehicle: Klucel (hydroxypropylcellulose) (HPC)) is 92 % of control.

`Nc1ncnc2[nH]c(=O)[nH]c12`: the T/C (dose: 25.0 mg/kg/injection, schedule: Q04DX003 (ip), vehicle: saline) is 95 % of control; the T/C (dose: 50.0 mg/kg/injection, schedule: Q04DX003 (ip), vehicle: saline) is 104 % of control; the T/C (dose: 100.0 mg/kg/injection, schedule: Q04DX003 (ip), vehicle: saline) was 104 % of control.

In the case of `CC1=C(C#N)C(C)(CCl)C(C#N)=C(C)N1C`, the T/C was 96 % of control (dose: 25.0 mg/kg/injection, schedule: Q01DX009 (ip), vehicle: other); 115 % of control (dose: 50.0 mg/kg/injection, schedule: Q01DX009 (ip), vehicle: other); 103 % of control (dose: 100.0 mg/kg/injection, schedule: Q01DX009 (ip), vehicle: other).

On to `O=C(Cn1c(=O)cc(Nc2ccccc2)c2ccccc21)Nc1ccccc1`, for which the T/C is, setting by setting: (dose: 100.0 mg/kg/injection, schedule: Q01DX001 (ip), vehicle: saline with Tween-80) 94 % of control; (dose: 200.0 mg/kg/injection, schedule: Q01DX001 (ip), vehicle: saline with Tween-80) 94 % of control; (dose: 400.0 mg/kg/injection, schedule: Q01DX001 (ip), vehicle: saline with Tween-80) 94 % of control.

As to `O=C1c2ccccc2-c2c1c1ccccc1c(=O)n2-c1ccccc1`, the T/C under setting [2] was 102 % of control, the T/C under setting [3] was 107 % of control and the T/C under setting [8] was 100 % of control.

Take `C=CC[n+]1ccc2ccccc2c1`: the T/C (dose: 25.0 mg/kg/injection, schedule: Q01DX009 (ip), vehicle: saline sonified) is 90 % of control; the T/C (dose: 50.0 mg/kg/injection, schedule: Q01DX009 (ip), vehicle: saline sonified) is 90 % of control; the T/C (dose: 100.0 mg/kg/injection, schedule: Q01DX009 (ip), vehicle: saline sonified) is 95 % of control.

In the case of `CC(C)(C)OC(=O)NC(Cc1ccc(O)cc1)C(=O)ON1C(=O)CCC1=O` (configuration not stated), the T/C was 100 % of control under setting [9], 106 % of control under setting [10] and 108 % of control under setting [11].

For `COc1ccc(-n2cnc3c(cnn3CN3CCCCC3)c2=O)cc1`, the T/C by setting is: under setting [6], 104 % of control; under setting [7], 103 % of control.

For `c1ccc2c(Nc3ccc(C4=NCCN4)cc3)nnc(Nc3ccc(C4=NCCN4)cc3)c2c1`, the T/C runs as follows: (dose: 3.13 mg/kg/injection, schedule: Q04DX003 (ip), vehicle: saline with Tween-80) 100 % of control; (dose: 6.25 mg/kg/injection, schedule: Q04DX003 (ip), vehicle: saline with Tween-80) 110 % of control; (dose: 12.5 mg/kg/injection, schedule: Q04DX003 (ip), vehicle: saline with Tween-80) 110 % of control; (dose: 25.0 mg/kg/injection, schedule: Q01DX009 (ip), vehicle: saline with Tween-80) 195 % of control; under setting [12], 210 % of control; under setting [13], 250 % of control. The T/C under setting [14] was 154 % of control and 168 % of control.

For `CCc1ccccc1NC1=C(Cl)C(=O)c2ccccc2C1=O`, the T/C is 104 % of control under setting [4] and 107 % of control under setting [5].

In the case of `CCCCCCOc1ccc(C(=O)Oc2ccc(OC(=O)c3ccc(N)cc3)cc2)cc1`, the T/C runs as follows: (dose: 50.0 mg/kg/injection, schedule: Q01DX009 (ip), vehicle: Klucel (hydroxypropylcellulose) (HPC)) 102 % of control; (dose: 100.0 mg/kg/injection, schedule: Q01DX009 (ip), vehicle: Klucel (hydroxypropylcellulose) (HPC)) 100 % of control; (dose: 200.0 mg/kg/injection, schedule: Q01DX009 (ip), vehicle: Klucel (hydroxypropylcellulose) (HPC)) 100 % of control.

In the case of `Cc1cc2cc3c4c(nn5nnnc5c4c2o1)-c1ccccc1CC3`, the T/C runs as follows: under setting [9], 92 % of control; under setting [10], 86 % of control; under setting [11], 95 % of control.

In the case of `CCOC(=O)/C=C(/C)SC1=CC(=O)c2ccccc2C1=O`, the T/C reads like this: (dose: 1.56 mg/kg/injection, schedule: Q01DX009 (ip), vehicle: saline) 91 % of control; (dose: 6.25 mg/kg/injection, schedule: Q01DX009 (ip), vehicle: saline) 98 % of control; (dose: 12.5 mg/kg/injection, schedule: Q01DX009 (ip), vehicle: saline with Tween-80) 119 % of control; (dose: 12.5 mg/kg/injection, schedule: Q01DX009 (ip), vehicle: saline) 100 % of control.

For the molecule `CCCCC(NC(=O)c1ccccc1)C(=O)O` (configuration not stated), the T/C is, setting by setting: under setting [12], 92 % of control; under setting [13], 100 % of control; (dose: 200.0 mg/kg/injection, schedule: Q01DX009 (ip), vehicle: saline with Tween-80) 98 % of control.

Consider `S=c1nn[nH]n1-c1ccccc1`, for which the T/C by setting is: (dose: 25.0 mg/kg/injection, schedule: Q04DX003 (ip), vehicle: saline with Tween-80) 100 % of control; under setting [12], 110 % of control; (dose: 50.0 mg/kg/injection, schedule: Q04DX003 (ip), vehicle: saline with Tween-80) 100 % of control; under setting [13], 110 % of control; under setting [14], 100 % of control and 91 % of control.

Turning to `O/N=C1/C(=N/O)N(c2ccccc2)CN1c1ccccc1`, the T/C (dose: 7.5 mg/kg/injection, schedule: Q01DX005 (ip), vehicle: Klucel (hydroxypropylcellulose) (HPC)) was 102 % of control; the T/C (dose: 15.0 mg/kg/injection, schedule: Q01DX005 (ip), vehicle: Klucel (hydroxypropylcellulose) (HPC)) is 95 % of control; the T/C (dose: 30.0 mg/kg/injection, schedule: Q01DX005 (ip), vehicle: Klucel (hydroxypropylcellulose) (HPC)) is 98 % of control.

Consider `CCC1(c2ccccc2)NN1C1CCCCC1` (configuration not stated), for which the T/C runs as follows: (dose: 6.25 mg/kg/injection, schedule: Q01DX005 (ip), vehicle: saline with Tween-80) 100 % of control; (dose: 12.5 mg/kg/injection, schedule: Q01DX005 (ip), vehicle: saline with Tween-80) 96 % of control; under setting [1], 92 % of control; under setting [2], 96 % of control; under setting [3], 100 % of control; under setting [8], 105 % of control.
